In patent publication US20230192617A1, “AZABICYCLIC(THIO)AMIDES AS FUNGICIDAL COMPOUNDS” (Bayer CropScience Aktiengesellschaft, priority 2020, published 2023):

Experiments:
[1] = Measurement of Log P values by HPLC on reversed phase columns (EEC directive 79/831 Annex V.A8); type: physicochemical; settings: reversed phase HPLC column, method [a]: LC-UV, acidic range, 0.1% formic acid in water and acetonitrile as eluent
In short: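 Log P derived from retention on reversed-phase columns (EEC directive 79/831 Annex V.A8), LC-UV, acetonitrile gradient 10% to 95% against water containing 0.1% formic acid, 0.001 M ammonium acetate, or 0.1% phosphoric acid; several values per method separated by "+".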

[2] = tested on: Botrytis cinerea; assay: In vivo preventive test on Botrytis cinerea (grey mould); settings: 500 ppm of active ingredient, preventive spray on gherkin or cabbage, evaluated 4 to 5 days after inoculation, read-out: efficacy
In short: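 Preventive spray on cabbage or gherkin seedlings, with compound formulated in DMSO/acetone/Tween 80 and water-diluted, preceded spore inoculation by 24 hours. Cabbage was held 4 to 5 days at 20° C., 100% relative humidity; gherkin 4 to 5 days at 17° C., 90% relative humidity.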

[3] = tested on: Septoria tritici; assay: B-9. Septoria tritici in vitro cell test; type: cell-based; settings: Zymoseptoria tritici, 168 h; 20 ppm of active ingredient; 7 days incubation; liquid culture, absorbance; read-out: efficacy (inhibition of fungal growth)
In short: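 Compounds from DMSO stocks (final DMSO ≤1%) were added to liquid medium containing S. tritici spores to test inhibition of germination and mycelial growth. After 7 days, mycelium growth was read spectrometrically and inhibition derived from absorbance versus fungicide-free control wells.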

SMILES	chromatographic logP [1]	pest or weed control at 500 ppm [2] [%]	inhibition at 20 ppm [3] [%]
Cc1ccc(C(F)(F)CNC(=O)c2c(Oc3cccc(Cl)c3F)nnc3c2CCCC3)c(Cl)c1 [I-140, 3-(3-chloro-2-fluoro-phenoxy)-N-[2-(2-chloro-4-methyl-phenyl)-2,2-difluoro-ethyl]-5,6,7,8-tetrahydrocinnoline-4-carboxamide]	3.94	90 to 100	90 to 100
Cc1ccc(C(F)(F)CNC(=O)c2c(Oc3cccc(C4CC4)c3F)nnc3ccccc23)c(C)c1 [I-071, 3-(3-cyclopropyl-2-fluoro-phenoxy)-N-[2-(2,4-dimethyl-phenyl)-2,2-difluoro-ethyl]cinnoline-4-carboxamide]	4.54	90 to 100	80 to 89
Cc1ccc(C(F)(F)CNC(=O)c2c(Oc3cccc(C4CC4)c3F)nnc3c2CCCC3)c(C)c1 [I-131]	4.23	90 to 100	90 to 100
O=C(NCC(F)c1ccc(Cl)cc1Cl)c1c(Oc2cccc(C(F)(F)F)c2)nnc2c1COCC2 (stereo not drawn) [I-126]	3.75	90 to 100	90 to 100
Cc1ccc(C(F)(F)CNC(=O)c2c(Oc3cccc(Cl)c3)nnc3c2CCCC3)c(Cl)c1 [I-139]	3.89	90 to 100	90 to 100
Cc1cc(Br)ccc1C(F)(F)CNC(=O)c1c(Oc2cccc(C(F)(F)F)c2)nnc2c1COCC2 [I-127]	3.94	90 to 100	90 to 100

More lines, main results first:

chromatographic logP [1]	SMILES	pest or weed control at 500 ppm [2] [%]	inhibition at 20 ppm [3] [%]
3.84	Cc1ccc(C(F)(F)CNC(=O)c2c(Oc3cccc(Cl)c3F)nnc3c2CCC3)c(Cl)c1 [I-143]	90 to 100	90 to 100
4.17	Cc1ccc(C(F)(F)CNC(=O)c2c(Oc3cccc(C4CC4)c3F)nnc3c2CCCC3)c(Cl)c1 [I-141]	90 to 100	90 to 100
4.05	Cc1ccc(C(F)(F)CNC(=O)c2c(Oc3cccc(C4CC4)c3F)nnc3c2CCC3)c(Cl)c1 [I-144]	90 to 100	80 to 89
4.44	Cc1cc(Br)ccc1C(F)(F)CNC(=O)c1c(Oc2cccc(Cl)c2F)nnc2c1CCCC2 [I-152]	90 to 100	90 to 100
3.85	O=C(NCC(F)(F)c1ccc(Cl)cc1Cl)c1c(Oc2cccc(C(F)(F)F)c2)nnc2c1COCC2 [I-228]	90 to 100	90 to 100
4.28	Cc1cc(Cl)ccc1C(F)(F)CNC(=O)c1c(Oc2cccc(C(F)(F)F)c2)nnc2c1CCCC2 [I-145]	90 to 100	90 to 100
3.94	Cc1ccc(C(F)(F)CNC(=O)c2c(Oc3cccc(C(F)(F)F)c3)nnc3c2CCC3)c(Cl)c1 [I-142]	90 to 100	90 to 100
